# Test results published in US20070049611A1, “Phosphodiesterase 4 inhibitors” (priority 2005, published 2007).
# Key:
# rats [1] = experiment: Radial arm maze task in rats, an in vivo test for learning and memory; conditions: rat, MK-801 0.1 mg/kg i.p., p<0.01
# Procedure: The test was performed as previously described (Zhang, H.-T., Crissman, A. M., Dorairaj, N. R., Chandler, L. J., and O'Donnell, J. M., Neuropsychopharmacology, 2000, 23, 198-204.). Five days after initial housing, rats (male Spraque-Dawley (Harlan) weighing 250 to 350 g) were placed in the eight-arm radial maze (each arm was 60×10×12 cm high; the maze was elevated 70 cm above the floor) for acclimation for two days. Rats were then placed individually in the center of the maze for 5 minutes with food pellets placed close to the food wells, and then, the next day, in the wells at the end of the arms; 2 sessions a day were conducted. Next, four randomly selected arms were then baited with one pellet of food each. The rat was restricted to the center platform (26 cm in diameter) for 15 seconds and then allowed to move freely throughout the maze until it collected all pellets of food or 10 minutes passed, whichever came first.
# Four parameters were recorded: 1) working memory errors, i.e., entries into baited arms that had already been visited during the same trial; 2) reference memory errors, i.e., entries into unbaited arms; 3) total arm entries; and 4) the test duration (seconds), i.e., the time spent in the collection of all the pellets in the maze. […]
# (§1) All data were analyzed by analyses of variance (ANOVA); individual comparisons were made using Kewman-Keuls tests. […]
# rats [2] = experiment: Passive avoidance in rats, an in vivo test for learning and memory; conditions: rat, MK-801 0.1 mg/kg, 24 hours after electric shock, p<0.001
# Procedure: The test was performed as previously described (Zhang, H.-T., Crissman, A. M., Dorairaj, N. R., Chandler, L. J., and O'Donnell, J. M., Neuropsychopharmacology, 2000, 23, 198-204.). The apparatus (Model E10-16SC, Coulboum Instruments, Allentown, Pa.) consisted of a two-compartment chamber with an illuminated compartment connected to a darkened compartment by a guillotine door. The floor of the darkened compartment consisted of stainless steel rods through which an electric foot-shock could be delivered from a constant current source. All experimental groups were first habituated to the apparatus the day before the start of the experiment. During the training, the rat (Male Spraque-Dawley (Harlan) weighing 250 to 350 g) was placed in the illuminated compartment facing away from the closed guillotine door for 1 minute before the door was raised. The latency for entering the darkened compartment was recorded. After the rat entered the darkened compartment, the door was closed and a 0.5 mA electric shock was administered for 3 seconds. […] The latency for entering the darkened compartment was recorded for up to 180 seconds, at which time the trial was terminated.
# as §1
compound,measurement,setting,value
C[C@]12N[C@H](Cc3ccccc31)c1ccccc12 [MK-801],frequencies of working and reference memory errors compared to control,rats [1],increased the frequencies of both working and reference memory errors
same,latency for entering the darkened compartment compared to the vehicle,rats [2],markedly reduced this latency
